{"source": "PubChem BioAssay (NCI)", "experiment_in_all_cases": "NCI anticancer screen, dose series, 48 h", "key": {"OVCAR-3 ovarian": {"tested_on": "OVCAR-3 ovarian"}, "CAKI-1 renal": {"tested_on": "CAKI-1 renal"}, "KM12 colon": {"tested_on": "KM12 colon"}, "786-0 renal": {"tested_on": "786-0 renal"}, "SNB-75 CNS": {"tested_on": "SNB-75 CNS"}, "UACC-62 melanoma": {"tested_on": "UACC-62 melanoma"}, "NCI-H522 lung": {"tested_on": "NCI-H522 lung"}, "MALME-3M melanoma": {"tested_on": "MALME-3M melanoma"}, "HL-60(TB) leukemia": {"tested_on": "HL-60(TB) leukemia"}, "CCRF-CEM leukemia": {"tested_on": "CCRF-CEM leukemia"}, "IGROV1 ovarian": {"tested_on": "IGROV1 ovarian"}, "EKVX NSCLC": {"tested_on": "EKVX NSCLC"}, "SK-MEL-28 melanoma": {"tested_on": "SK-MEL-28 melanoma"}, "SF-539 CNS": {"tested_on": "SF-539 CNS"}, "SF-295 CNS": {"tested_on": "SF-295 CNS"}, "SK-MEL-2 melanoma": {"tested_on": "SK-MEL-2 melanoma"}, "DMS 273 small cell lung": {"tested_on": "DMS 273 small cell lung"}, "SNB-19 CNS": {"tested_on": "SNB-19 CNS"}, "TK-10 renal": {"tested_on": "TK-10 renal"}, "DLD-1 colon": {"tested_on": "DLD-1 colon"}, "RXF 393 renal": {"tested_on": "RXF 393 renal"}, "HOP-92 NSCLC": {"tested_on": "HOP-92 NSCLC"}, "SNB-78 CNS": {"tested_on": "SNB-78 CNS"}, "ACHN renal": {"tested_on": "ACHN renal"}, "OVCAR-5 ovarian": {"tested_on": "OVCAR-5 ovarian"}, "SN12C renal": {"tested_on": "SN12C renal"}, "LXFL 529 NSCLC": {"tested_on": "LXFL 529 NSCLC"}, "OVCAR-8 ovarian": {"tested_on": "OVCAR-8 ovarian"}, "DMS 114 small cell lung": {"tested_on": "DMS 114 small cell lung"}, "NCI-H226 lung": {"tested_on": "NCI-H226 lung"}, "XF 498 CNS": {"tested_on": "XF 498 CNS"}, "LOX IMVI melanoma": {"tested_on": "LOX IMVI melanoma"}, "SW-620 colon": {"tested_on": "SW-620 colon"}, "NCI-H23 lung": {"tested_on": "NCI-H23 lung"}, "KM20L2 colon": {"tested_on": "KM20L2 colon"}, "HCC-2998 colon": {"tested_on": "HCC-2998 colon"}, "A498 renal": {"tested_on": "A498 renal"}, "OVCAR-4 ovarian": {"tested_on": "OVCAR-4 ovarian"}, "MOLT-4 leukemia": {"tested_on": "MOLT-4 leukemia"}, "RPMI-8226 leukemia": {"tested_on": "RPMI-8226 leukemia"}, "M19-MEL melanoma": {"tested_on": "M19-MEL melanoma"}, "HT29 colon": {"tested_on": "HT29 colon"}, "SF-268 CNS": {"tested_on": "SF-268 CNS"}, "M14 melanoma": {"tested_on": "M14 melanoma"}, "UACC-257 melanoma": {"tested_on": "UACC-257 melanoma"}, "SK-OV-3 ovarian": {"tested_on": "SK-OV-3 ovarian"}, "COLO 205 colon": {"tested_on": "COLO 205 colon"}, "A549 NSCLC": {"tested_on": "A549 NSCLC"}, "K-562 leukemia": {"tested_on": "K-562 leukemia"}, "SK-MEL-5 melanoma": {"tested_on": "SK-MEL-5 melanoma"}, "HCT-15 colon": {"tested_on": "HCT-15 colon"}, "UO-31 renal": {"tested_on": "UO-31 renal"}, "HOP-62 NSCLC": {"tested_on": "HOP-62 NSCLC"}, "NCI-H460 lung": {"tested_on": "NCI-H460 lung"}}, "note": "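Briefly, cells in 96-well plates were exposed to five compound concentrations for 48 h, and endpoints were estimated by linear interpolation. At the TGI there is no net growth.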", "data": [{"smiles": "COC(=O)/C(Cl)=C1/CC1COCc1ccccc1", "note": "(centres undefined)", "values": [{"measurement": "TGI", "setting": "OVCAR-3 ovarian", "result": 52.5, "unit": "µM"}, {"measurement": "TGI", "setting": "CAKI-1 renal", "result": 52.4, "unit": "µM"}, {"measurement": "TGI", "setting": "KM12 colon", "result": 77.4, "unit": "µM"}, {"measurement": "TGI", "setting": "786-0 renal", "result": 42.2, "unit": "µM"}, {"measurement": "TGI", "setting": "SNB-75 CNS", "result": "> 100", "unit": "µM"}, {"measurement": "TGI", "setting": "UACC-62 melanoma", "result": 66.8, "unit": "µM"}, {"measurement": "TGI", "setting": "NCI-H522 lung", "result": 40.5, "unit": "µM"}, {"measurement": "TGI", "setting": "MALME-3M melanoma", "result": 83.1, "unit": "µM"}, {"measurement": "TGI", "setting": "HL-60(TB) leukemia", "result": 38.7, "unit": "µM"}, {"measurement": "TGI", "setting": "CCRF-CEM leukemia", "result": 43.5, "unit": "µM"}, {"measurement": "TGI", "setting": "IGROV1 ovarian", "result": "> 100", "unit": "µM"}, {"measurement": "TGI", "setting": "EKVX NSCLC", "result": "> 10", "unit": "µM"}, {"measurement": "TGI", "setting": "SK-MEL-28 melanoma", "result": 47.4, "unit": "µM"}, {"measurement": "TGI", "setting": "SF-539 CNS", "result": 49.8, "unit": "µM"}, {"measurement": "TGI", "setting": "SF-295 CNS", "result": "> 100", "unit": "µM"}, {"measurement": "TGI", "setting": "SK-MEL-2 melanoma", "result": 96.9, "unit": "µM"}, {"measurement": "TGI", "setting": "DMS 273 small cell lung", "result": 54.9, "unit": "µM"}, {"measurement": "TGI", "setting": "SNB-19 CNS", "result": "> 100", "unit": "µM"}, {"measurement": "TGI", "setting": "TK-10 renal", "result": "> 100", "unit": "µM"}, {"measurement": "TGI", "setting": "DLD-1 colon", "result": 45.8, "unit": "µM"}, {"measurement": "TGI", "setting": "RXF 393 renal", "result": 37.8, "unit": "µM"}, {"measurement": "TGI", "setting": "HOP-92 NSCLC", "result": 50.4, "unit": "µM"}, {"measurement": "TGI", "setting": "SNB-78 CNS", "result": "> 100", "unit": "µM"}, {"measurement": "TGI", "setting": "ACHN renal", "result": 81.6, "unit": "µM"}, {"measurement": "TGI", "setting": "OVCAR-5 ovarian", "result": "> 100", "unit": "µM"}, {"measurement": "TGI", "setting": "SN12C renal", "result": "> 100", "unit": "µM"}, {"measurement": "TGI", "setting": "LXFL 529 NSCLC", "result": 31.1, "unit": "µM"}, {"measurement": "TGI", "setting": "OVCAR-8 ovarian", "result": "> 100", "unit": "µM"}, {"measurement": "TGI", "setting": "DMS 114 small cell lung", "result": 81.2, "unit": "µM"}, {"measurement": "TGI", "setting": "NCI-H226 lung", "result": 81.9, "unit": "µM"}, {"measurement": "TGI", "setting": "XF 498 CNS", "result": 58.4, "unit": "µM"}, {"measurement": "TGI", "setting": "LOX IMVI melanoma", "result": "> 10", "unit": "µM"}, {"measurement": "TGI", "setting": "SW-620 colon", "result": 45.1, "unit": "µM"}, {"measurement": "TGI", "setting": "NCI-H23 lung", "result": 88.2, "unit": "µM"}, {"measurement": "TGI", "setting": "KM20L2 colon", "result": "> 100", "unit": "µM"}, {"measurement": "TGI", "setting": "HCC-2998 colon", "result": "> 10", "unit": "µM"}, {"measurement": "TGI", "setting": "A498 renal", "result": 96.9, "unit": "µM"}, {"measurement": "TGI", "setting": "OVCAR-4 ovarian", "result": 84.2, "unit": "µM"}, {"measurement": "TGI", "setting": "MOLT-4 leukemia", "result": 53.5, "unit": "µM"}, {"measurement": "TGI", "setting": "RPMI-8226 leukemia", "result": 58.3, "unit": "µM"}, {"measurement": "TGI", "setting": "M19-MEL melanoma", "result": 93.2, "unit": "µM"}, {"measurement": "TGI", "setting": "HT29 colon", "result": 58, "unit": "µM"}, {"measurement": "TGI", "setting": "SF-268 CNS", "result": "> 100", "unit": "µM"}, {"measurement": "TGI", "setting": "M14 melanoma", "result": 31.2, "unit": "µM"}, {"measurement": "TGI", "setting": "UACC-257 melanoma", "result": "> 100", "unit": "µM"}, {"measurement": "TGI", "setting": "SK-OV-3 ovarian", "result": "> 100", "unit": "µM"}, {"measurement": "TGI", "setting": "COLO 205 colon", "result": 44.4, "unit": "µM"}, {"measurement": "TGI", "setting": "A549 NSCLC", "result": "> 100", "unit": "µM"}, {"measurement": "TGI", "setting": "K-562 leukemia", "result": 49.9, "unit": "µM"}, {"measurement": "TGI", "setting": "SK-MEL-5 melanoma", "result": 54.7, "unit": "µM"}, {"measurement": "TGI", "setting": "HCT-15 colon", "result": 35.8, "unit": "µM"}, {"measurement": "TGI", "setting": "UO-31 renal", "result": 67.5, "unit": "µM"}, {"measurement": "TGI", "setting": "HOP-62 NSCLC", "result": "> 100", "unit": "µM"}, {"measurement": "TGI", "setting": "NCI-H460 lung", "result": "> 100", "unit": "µM"}]}]}
